Like-named read-outs stand apart in the source and are kept apart here.
Experiments:
[1] = test system: HIV-1 wild-type (WT) strain (IIIB); test: Anti-HIV activity in MT-4 cells (MTT method), HIV-1 IIIB; type: cell-based; settings: for EC50: Human immunodeficiency virus 1, IIIB, MT4, read-out: EC50 IIIB; for SI IIIB: selectivity index, ratio CC50/EC50, IIIB
Experimental: (§1) All the target compounds were first evaluated for their antiviral activity against HIV-1 wild-type (WT) strain (IIIB) and the double-mutant strain K103N+Y181C (RES056) in the MT-4 cell line, using the MTT method.
(§2) The antiviral potential and cytotoxic effects of the target compounds were assessed using the MTT assay in MT-4 cells, following established protocols. The HIV-1 (IIIB) strain, single mutant strains (L100I, K103N, Y181C, Y188L and E138K), double mutant strains (F227L + V106A and K103N + Y181C) and MT-4 cells were provided by the Rega Institute of Medicine at the University of Leuven, Belgium. These viral strains were propagated in MT-4 cells. […] The specific experimental procedures are detailed below.
(§3) Initially, concentrated solutions of the test compounds were prepared at 10-fold the final desired concentration and added to triplicate wells in 25 µL aliquots to assess their impacts on both mock and HIV-infected MT-4 cells. Using a Biomek 3000 robot, these were diluted in a 96-well flat-bottomed microplate by mixing with medium, creating a series of 5-fold steps down in concentration. Each test included control groups of untreated infected and mock-infected cells to establish baselines for comparison. […] These strains served to mimic both typical and resistant infections. Additionally, mock-infected wells received an equal volume of culture medium to assess the compounds’ impacts on uninfected cells, thereby determining cytotoxicity. MT-4 cells in the exponential growth phase were pelleted by centrifugation at 1000 rpm for 5 min, after which the supernatant was removed. The cells were resuspended to a density of 6 × 10^5 cells/mL, and 50 µL of this suspension was added to each well. Post-infection, on the fifth day, cell viability in both mock and infected conditions was measured via the MTT assay using a spectrophotometer.

[2] = test system: HIV-1 double-mutant strain K103N+Y181C (RES056); test: microbe, parasite or virus in culture; type: cell-based; settings: for EC50: Human immunodeficiency virus 1, MT4, read-out: EC50 RES056; for SI RES056: selectivity index, ratio CC50/EC50, RES056
Experimental: as §1, §2, §3

[3] = Cytotoxicity in mock-infected MT-4 cells (MTT method); type: cell-based; settings: human
Experimental: (§4) The antiviral potential and cytotoxic effects of the target compounds were assessed using the MTT assay in MT-4 cells, following established protocols. The HIV-1 (IIIB) strain, single mutant strains (L100I, K103N, Y181C, Y188L and E138K), double mutant strains (F227L + V106A and K103N + Y181C) and MT-4 cells were provided by the Rega Institute of Medicine at the University of Leuven, Belgium. These viral strains were propagated in MT-4 cells. The MT-4 cells were cultured in RPMI-1640 medium supplemented with 20 mM HEPES buffer (Life Technologies, Grand Island, NY, USA), 10% (v/v) heat-inactivated fetal calf serum (FCS), 2 mM L-glutamine, 0.1% sodium bicarbonate, and 20 μg/mL gentamicin. Cultures were maintained at 37 °C in a 5% CO2 atmosphere. The specific experimental procedures are detailed below.
(§5) Initially, concentrated solutions of the test compounds were prepared at 10-fold the final desired concentration and added to triplicate wells in 25 µL aliquots to assess their impacts on both mock and HIV-infected MT-4 cells. Using a Biomek 3000 robot, these were diluted in a 96-well flat-bottomed microplate by mixing with medium, creating a series of 5-fold steps down in concentration. Each test included control groups of untreated infected and mock-infected cells to establish baselines for comparison. We introduced HIV-1 strains, both wild-type (IIIB) and drug-resistant variants harboring mutations L100I, K103N, Y181C, Y188L, E138K and F227L + V106A and the double mutant K103N + Y181C (RES056), at concentrations of 100–300 CCID50, into their respective wells. These strains served to mimic both typical and resistant infections. Additionally, mock-infected wells received an equal volume of culture medium to assess the compounds’ impacts on uninfected cells, thereby determining cytotoxicity. MT-4 cells in the exponential growth phase were pelleted by centrifugation at 1000 rpm for 5 min, after which the supernatant was removed. The cells were resuspended to a density of 6 × 10^5 cells/mL, and 50 µL of this suspension was added to each well. Post-infection, on the fifth day, cell viability in both mock and infected conditions was measured via the MTT assay using a spectrophotometer. The CC50 was identified as the concentration of the compound that caused a 50% reduction in the viability of the mock-infected cells, indicating cytotoxicity. Conversely, the EC50 represented the concentration that provided 50% protection against viral cytopathic effects in infected cells, signifying antiviral potency.

[4] = test system: HIV-1 L100I mutant strain; test: Anti-HIV activity in MT-4 cells (MTT method), L100I; type: cell-based; settings: Human immunodeficiency virus 1, MT4, read-out: EC50 L100I
Description: (§6) All the target compounds were first evaluated for their antiviral activity against HIV-1 wild-type (WT) strain (IIIB) and the double-mutant strain K103N+Y181C (RES056) in the MT-4 cell line, using the MTT method. The potent inhibitors were selected to assess their efficacy against other strains resistant to NNRTIs, including L100I, K103N, Y181C, Y188L, E138K and the double-mutant strain F227L+V106A. The approved drugs NVP, EFV and ETR were selected as reference drugs. The biological evaluation results of the test compounds, presented as EC50 (anti-HIV potency), CC50 (cytotoxicity) and SI (selectivity index, CC50/EC50 ratio), are summarized in Table 1 and Table 2.
as §4, §5

[5] = test system: HIV-1 K103N mutant strain; test: Anti-HIV activity in MT-4 cells (MTT method), K103N; type: cell-based; settings: Human immunodeficiency virus 1, MT4, read-out: EC50 K103N
Description: as §6, §4, §5

[6] = test system: HIV-1 Y181C mutant strain; test: Anti-HIV activity in MT-4 cells (MTT method), Y181C; type: cell-based; settings: Human immunodeficiency virus 1, MT4, read-out: EC50 Y181C
Description: as §6, §4, §5

[7] = test system: HIV-1 Y188L mutant strain; test: Anti-HIV activity in MT-4 cells (MTT method), Y188L; type: cell-based; settings: Human immunodeficiency virus 1, MT4, read-out: EC50 Y188L
Description: as §6, §4, §5

[8] = test system: HIV-1 E138K mutant strain; test: Anti-HIV activity in MT-4 cells (MTT method), E138K; type: cell-based; settings: Human immunodeficiency virus 1, MT4, read-out: EC50 E138K
Description: as §6, §4, §5

[9] = test system: HIV-1 double-mutant strain F227L+V106A; test: Anti-HIV activity in MT-4 cells (MTT method), F227L+V106A; type: cell-based; settings: Human immunodeficiency virus 1, MT4, read-out: EC50 F227L/V106A
Description: as §6, §4, §5

[10] = target: T1, WT HIV-1 RT (Human immunodeficiency virus type 1 group M subtype B, UniProt P03366); test: HIV-1 RT inhibition assay (Roche kit, ELISA); type: biochemical
T1 construct: viral nucleotides (dNTPs) and the HIV-1 RT enzyme in an incubation buffer; purchased Roche
Description: An assay kit for HIV-1 reverse transcriptase (RT) from Roche was utilized to assess RT inhibition. The kit provided all necessary components for the RT reaction, and the enzyme-linked immunosorbent assay (ELISA) methodology for the inhibition assay was executed according to the kit’s instructions. […] Unbound dNTPs were washed away, and an anti-[…] (DIG)-POD working solution was introduced. […] Excess anti-DIG-POD was removed, and a peroxidase substrate (ABTS) solution was applied to the MTPs. […] The percentage of the inhibitory activity of the RT inhibitors was calculated by formula, as given below:
% Inhibition = [O.D. value with RT but without inhibitors − O.D. value with RT and inhibitors]/[O.D. value with RT […] − O.D. value without RT and inhibitors].

[11] = reduces viability of mock-infected MT-4 cell cultures by 50%, MTT method, read-out: CC50

Row | Structure (SMILES) | EC50 [1] | SI IIIB [1] | EC50 [2] | SI RES056 [2] | CC50 at 5 days ([3]; CC50) | EC50 [4] | EC50 [5] | EC50 [6] | EC50 [7] | EC50 [8] | EC50 [9] | IC50 [10] | melting point | CC50 at 5 days [3, 11]
1 | Cc1cc(C#N)cc(C)c1Oc1nc(Nc2ccc(NC(=O)[C@@H](N)Cc3ccccc3)cc2)nc2ccsc12 [5h] | 55 ± 12 nM | 429 | 8470 ± 483 nM | 3 | 23700 ± 521 nM | 1830 ± 208 nM | 73 ± 16 nM | 2720 ± 422 nM | 2390 ± 352 nM | 679 ± 569 nM | 2110 ± 293 nM | 1540 ± 119 nM | 203 to 206 °C | –
2 | Cc1cc(C#N)cc(C)c1Oc1nc(Nc2ccc(NC(=O)C3CCCN3C(=O)OC(C)(C)C)cc2)nc2ccsc12 (stereo not shown) [5g] | 924 ± 242 nM | 206 | > 191000 nM | <1 | 191000 nM | – | – | – | – | – | – | – | 236 to 238 °C | –
3 | Cc1cc(C#N)cc(C)c1Oc1nc(Nc2ccc(NC(=O)[C@@H](CC(C)C)NC(=O)OC(C)(C)C)cc2)nc2ccsc12 [5m] | 9860 ± 1180 nM | >21 | > 208000 nM | – | > 208000 nM | – | – | – | – | – | – | – | – | –
4 | Cc1cc(C#N)cc(C)c1Oc1nc(Nc2ccc(NC(=O)C(N)Cc3c[nH]c4ccccc34)cc2)nc2ccsc12 (stereo not shown) [5b] | 89 ± 43 nM | 250 | > 22400 nM | <1 | 22400 ± 560 nM | – | – | – | – | – | – | – | 224 to 227 °C | –
5 | Cc1cc(C#N)cc(C)c1Oc1nc(Nc2ccc(NC(=O)C3CC(O)CN3)cc2)nc2ccsc12 (stereo not shown) [5l] | 59 ± 10 nM | 451 | > 26800 nM | <1 | 26800 ± 1070 nM | 1480 ± 545 nM | 72 ± 18 nM | 2600 ± 225 nM | 2740 ± 103 nM | 314 ± 95 nM | 2190 ± 45 nM | 1710 ± 298 nM | – | –
6 | Cc1cc(C#N)cc(C)c1Oc1nc(Nc2ccc(NC(=O)[C@@H](NC(=O)OC(C)(C)C)C(C)C)cc2)nc2ccsc12 [5f] | 848 ± 247 nM | >251 | > 213000 nM | – | > 213000 nM | – | – | – | – | – | – | – | 158 to 160 °C | –
7 | CNCC(=O)Nc1ccc(Nc2nc(Oc3c(C)cc(C#N)cc3C)c3sccc3n2)cc1 [5j] | 242 ± 65 nM | 72 | > 17300 nM | <1 | 17300 ± 11500 nM | – | – | – | – | – | – | – | 171 to 173 °C | –
8 | Cc1cc(C#N)cc(C)c1Oc1nc(Nc2ccc(NC(=O)[C@H](Cc3cn(C(=O)OC(C)(C)C)cn3)NC(=O)OC(C)(C)C)cc2)nc2ccsc12 [5c] | 672 ± 648 nM | 29 | > 19600 nM | <1 | 19600 ± 720 nM | – | – | – | – | – | – | – | 236 to 238 °C | –
9 | Cc1cc(C#N)cc(C)c1Oc1nc(Nc2ccc(NC(=O)C(Cc3c[nH]c4ccccc34)NC(=O)OC(C)(C)C)cc2)nc2ccsc12 (stereo not shown) [5a] | 940 ± 278 nM | >197 | > 186000 nM | – | > 186000 nM | – | – | – | – | – | – | – | 205 to 208 °C | –
10 | Cc1cc(C#N)cc(C)c1Oc1nc(Nc2ccc(NC(=O)C3CC(O)CN3C(=O)OC(C)(C)C)cc2)nc2ccsc12 (stereo not shown) [5p] | 2580 ± 520 nM | 9 | – | – | 22500 ± 391 nM | – | – | – | – | – | – | – | – | –
11 | Cc1cc(C#N)cc(C)c1Oc1nc(Nc2ccc(NC(=O)[C@H](Cc3ccccc3)NC(=O)OC(C)(C)C)cc2)nc2ccsc12 [5d] | 771 ± 236 nM | >256 | > 197000 nM | – | > 197000 nM | – | – | – | – | – | – | – | 220 to 222 °C | –
12 | Cc1cc(C#N)cc(C)c1Oc1nc(Nc2ccc(C#N)cc2)nc(N)c1Br [ETR, etravirine, reference compound] | 3 ± 1 nM | – | 40 ± 11 nM | – | > 4610 nM | – | 3 ± 1 nM | 15 ± 5 nM | 21 ± 8 nM | 9 ± 4 nM | 9 ± 4 nM | – | – | –
13 | Cc1cc(C#N)cc(C)c1Oc1nc(Nc2ccc(NC(=O)[C@H](N)CC(C)C)cc2)nc2ccsc12 [5n] | 62 ± 19 nM | 391 | 5500 ± 1360 nM | 4 | 24300 ± 4280 nM | 2120 ± 455 nM | 131 ± 4 nM | 2160 ± 57 nM | 2110 ± 288 nM | 231 ± 154 nM | 2030 ± 1180 nM | 2390 ± 86 nM | – | –
14 | O=C1Nc2ccc(Cl)cc2[C@@](C#CC2CC2)(C(F)(F)F)O1 [EFV, efavirenz, reference compound] | 6 ± 2 nM | – | 698 ± 449 nM | – | – | 54 ± 36 nM | 132 ± 50 nM | 8 ± 1 nM | 280 ± 91 nM | 10 ± 5 nM | 329 ± 228 nM | – | – | > 6350 nM
15 | Cc1ccnc2c1NC(=O)c1cccnc1N2C1CC1 [NVP, nevirapine, reference compound] | 236 ± 114 nM | – | > 15000 nM | – | – | 1740 ± 879 nM | 4090 ± 3710 nM | 8040 ± 1680 nM | 9870 ± 2470 nM | 181 ± 67 nM | 7500 ± 2590 nM | – | – | > 15000 nM
16 | Cc1cc(C#N)cc(C)c1Oc1nc(Nc2ccc(NC(=O)CN(C)C(=O)OC(C)(C)C)cc2)nc2ccsc12 [5o] | 863 ± 253 nM | 7 | – | – | 5840 ± 1180 nM | – | – | – | – | – | – | – | – | –

Reference: PMC11354745, “Discovery of Novel Amino Acids (Analogues)-Substituted Thiophene[3,2-d]pyrimidine Derivatives as Potent HIV-1 Non-Nucleoside Reverse Transcriptase Inhibitors: Design, Synthesis, and Biological Evaluation” (International Journal of Molecular Sciences, 2024)
